The values below come from patent US12466827B2, “1,3,4-oxadiazole derivative compounds as histone deacetylase 6 inhibitor, and the pharmaceutical composition comprising the same” (CHONG KUN DANG PHARMACEUTICAL CORP., priority 2020, dated 2025).

One assay addresses T1, human recombinant HDAC1 (Homo sapiens, UniProt Q13547).
T1 construct: purchased Enzo Life Sciences, Inc. BML-SE456
Briefly: In vitro HDAC enzyme activity inhibition assay (HDAC1). Type of assay: biochemical. The conditions noted are these: Fluor de Lys-SIRT1 substrate 10 μM, 30° C., 60 minutes, fluorescence. On the procedure:
(§1) In order to confirm the selectivity of the compounds represented by Chemical Formula I of the present invention to HDAC6 through HDAC1 and HDAC6 enzyme activity inhibition experiments, a comparison experiment was performed using the material that has already been developed as a control group.
(§2) HDAC enzyme activity was measured using the HDAC Fluorimetric Drug Discovery Kit (Enzo Life Sciences, Inc., BML-AK511, 516). For the HDAC1 enzyme activity test, human recombinant HDAC1 (BML-SE456) was used as an enzyme source and Fluor de Lys-SIRT1 (BNL-KI177) was used as a substrate. After dispensing 5-fold diluted compounds into a 96-well plate, 0.3 μg of enzyme and 10 μM substrate were added to each well of the plate and allowed to react at 30° C. for 60 minutes. Next, Fluor de Lys Developer II (BML-KI176) was added and reacted for 30 minutes to complete the reaction, and then the fluorescence values (Ex 360, Em 460) were measured using a multi-plate reader (Flexstation 3, Molecular Device). The HDAC6 enzymes were tested using human recombinant HDAC6 (382180) from Calbiochem Inc., according to the same protocol as the HDAC1 enzyme activity test method. With respect to the final result values, respective IC50 values were calculated using GraphPad Prism 4.0 program, and results thereof were summarized in Table 4 below.

The next assay has as its target T2, human recombinant HDAC6 (Homo sapiens, UniProt Q9UBN7).
T2 construct: purchased Calbiochem Inc. 382180
T2 sequence (Q9UBN7 1-1215): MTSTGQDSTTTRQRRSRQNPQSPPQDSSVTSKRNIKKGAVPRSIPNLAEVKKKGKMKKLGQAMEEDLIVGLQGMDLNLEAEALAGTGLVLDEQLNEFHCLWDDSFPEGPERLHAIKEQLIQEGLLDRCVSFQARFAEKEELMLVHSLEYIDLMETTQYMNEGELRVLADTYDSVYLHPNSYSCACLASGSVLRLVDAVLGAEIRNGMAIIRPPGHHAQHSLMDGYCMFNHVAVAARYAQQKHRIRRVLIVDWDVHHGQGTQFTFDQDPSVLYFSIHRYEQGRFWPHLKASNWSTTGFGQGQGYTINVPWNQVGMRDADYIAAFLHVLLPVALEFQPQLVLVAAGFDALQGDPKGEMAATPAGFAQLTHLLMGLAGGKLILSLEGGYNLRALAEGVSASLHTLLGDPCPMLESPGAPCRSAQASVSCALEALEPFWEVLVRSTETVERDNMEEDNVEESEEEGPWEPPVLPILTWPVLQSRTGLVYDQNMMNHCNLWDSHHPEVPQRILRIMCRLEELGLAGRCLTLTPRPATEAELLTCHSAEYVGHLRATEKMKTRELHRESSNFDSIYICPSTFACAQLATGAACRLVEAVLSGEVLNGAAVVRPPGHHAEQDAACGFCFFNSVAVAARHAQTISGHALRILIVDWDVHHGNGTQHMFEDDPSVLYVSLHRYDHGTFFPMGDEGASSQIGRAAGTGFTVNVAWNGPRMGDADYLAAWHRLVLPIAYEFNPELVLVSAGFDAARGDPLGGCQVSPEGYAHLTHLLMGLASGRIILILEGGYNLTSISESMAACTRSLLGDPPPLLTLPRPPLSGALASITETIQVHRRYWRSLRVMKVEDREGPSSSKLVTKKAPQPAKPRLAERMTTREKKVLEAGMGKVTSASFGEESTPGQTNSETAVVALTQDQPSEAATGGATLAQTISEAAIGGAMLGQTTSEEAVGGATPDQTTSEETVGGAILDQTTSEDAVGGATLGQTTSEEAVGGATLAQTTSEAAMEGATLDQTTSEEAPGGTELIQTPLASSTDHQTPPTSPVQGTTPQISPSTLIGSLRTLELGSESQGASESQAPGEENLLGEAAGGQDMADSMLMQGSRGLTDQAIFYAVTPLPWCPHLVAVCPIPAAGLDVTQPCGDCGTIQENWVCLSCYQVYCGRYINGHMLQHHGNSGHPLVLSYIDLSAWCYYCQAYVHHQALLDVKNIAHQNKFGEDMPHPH
Briefly: In vitro HDAC enzyme activity inhibition assay (HDAC6). Type of assay: biochemical. Particulars: for HDAC6 selectivity (fold): HDAC6 over HDAC1; for IC50: same protocol as the HDAC1 test, human recombinant HDAC6 (Calbiochem). The procedure: as §1, §2

T1 sequence (Q13547 whole entry): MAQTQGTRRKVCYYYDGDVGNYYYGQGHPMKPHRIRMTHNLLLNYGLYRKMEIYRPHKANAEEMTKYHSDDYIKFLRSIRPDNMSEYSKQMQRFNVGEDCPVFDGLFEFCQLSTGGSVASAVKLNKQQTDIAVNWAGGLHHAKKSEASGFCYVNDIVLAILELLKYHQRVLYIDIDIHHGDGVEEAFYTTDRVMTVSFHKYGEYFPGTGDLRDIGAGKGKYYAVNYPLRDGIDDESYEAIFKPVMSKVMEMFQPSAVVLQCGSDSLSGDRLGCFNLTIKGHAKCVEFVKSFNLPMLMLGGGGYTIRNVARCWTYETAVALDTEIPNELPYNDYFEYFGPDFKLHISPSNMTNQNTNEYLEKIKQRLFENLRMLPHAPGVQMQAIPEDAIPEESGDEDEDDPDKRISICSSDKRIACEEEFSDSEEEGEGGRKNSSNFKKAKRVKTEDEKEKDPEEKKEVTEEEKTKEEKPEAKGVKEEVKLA

For orientation: IC50 means the midpoint of a concentration-inhibition curve. On to `O=S(=O)(C1CCN(c2ncccn2)CC1)N(Cc1cn2ccc(-c3nnc(C(F)F)o3)cc2n1)c1ccccc1` [Compound 4228, N-((7-(5-(difluoromethyl)-1,3,4-oxadiazol-2-yl)imidazo[1,2-a]pyridin-2-yl)methyl)-N-phenyl-1-(pyrimidin-2-yl)piperidine-4-sulfonamide], for which the IC50 on human recombinant HDAC1 was greater than 50000 nM. Further, on human recombinant HDAC6, the “HDAC6 selectivity (fold)” value was determined as 486 fold and the 50% inhibitory concentration (IC50) was determined as 103 nM.

`CN1CCC(S(=O)(=O)N(Cc2cn3ccc(-c4nnc(C(F)F)o4)cc3n2)c2cccc(F)c2)CC1` [Compound 4236, N-((7-(5-(difluoromethyl)-1,3,4-oxadiazol-2-yl)imidazo[1,2-a]pyridin-2-yl)methyl)-N-(3-fluorophenyl)-1-methylpiperidine-4-sulfonamide]: the IC50 was greater than 50000 nM at human recombinant HDAC1 and 73.8 nM at human recombinant HDAC6. Also, the “HDAC6 selectivity (fold)” value at human recombinant HDAC6 worked out at 678 fold.

In the case of `CCN1CCC(S(=O)(=O)N(Cc2cn3ccc(-c4nnc(C(F)F)o4)cc3n2)c2cccc(F)c2)CC1` [Compound 4237, N-((7-(5-(difluoromethyl)-1,3,4-oxadiazol-2-yl)imidazo[1,2-a]pyridin-2-yl)methyl)-1-ethyl-N-(3-fluorophenyl)-piperidine-4-sulfonamide], the IC50 on human recombinant HDAC1 was greater than 50000 nM. For the same molecule, on human recombinant HDAC6, the “HDAC6 selectivity (fold)” value was determined as 821 fold and the half-inhibitory concentration (IC50) is 60.9 nM.

For `CC(C)N1CCC(S(=O)(=O)N(Cc2cn3ccc(-c4nnc(C(F)F)o4)cc3n2)c2cccc(F)c2)CC1` [Compound 4238, N-((7-(5-(difluoromethyl)-1,3,4-oxadiazol-2-yl)imidazo[1,2-a]pyridin-2-yl)methyl)-N-(3-fluorophenyl)-1-isopropylpiperidine-4-sulfonamide], at human recombinant HDAC1, the IC50 was greater than 50000 nM. On human recombinant HDAC6, the “HDAC6 selectivity (fold)” value worked out at 653 fold and the concentration for half-maximal inhibition (IC50) is 76.6 nM.

With `CC(CO)N1CCC(S(=O)(=O)N(Cc2cn3ccc(-c4nnc(C(F)F)o4)cc3n2)c2cccc(F)c2)CC1` (stereo not drawn) [Compound 4239, N-((7-(5-(difluoromethyl)-1,3,4-oxadiazol-2-yl)imidazo[1,2-a]pyridin-2-yl)methyl)-N-(3-fluorophenyl)-1-(1-hydroxypropan-2-yl)piperidine-4-sulfonamide], the IC50 on human recombinant HDAC1 is greater than 50000 nM. Also, on human recombinant HDAC6, the “HDAC6 selectivity (fold)” value was determined as 635 fold and the IC50 came to 78.8 nM.

Take `O=S(=O)(C1CCN(C2CCC2)CC1)N(Cc1cn2ccc(-c3nnc(C(F)F)o3)cc2n1)c1cccc(F)c1` [Compound 4240, 1-cyclobutyl-N-((7-(5-(difluoromethyl)-1,3,4-oxadiazol-2-yl)imidazo[1,2-a]pyridin-2-yl)methyl)-N-(3-fluorophenyl)piperidine-4-sulfonamide]: the IC50 at human recombinant HDAC1 was greater than 50000 nM; on human recombinant HDAC6 it was 53.4 nM. The “HDAC6 selectivity (fold)” value at human recombinant HDAC6 turned out to be 936 fold.

As for `O=S(=O)(C1CCN(C2COC2)CC1)N(Cc1cn2ccc(-c3nnc(C(F)F)o3)cc2n1)c1cccc(F)c1` [Compound 4241], the results for the half-maximal inhibitory concentration (IC50) at human recombinant HDAC1 and on human recombinant HDAC6 were greater than 50000 nM and 69.9 nM, respectively. Further, on human recombinant HDAC6, the “HDAC6 selectivity (fold)” value was 715 fold.

Consider `O=S(=O)(C1CCN(C2CCCCC2)CC1)N(Cc1cn2ccc(-c3nnc(C(F)F)o3)cc2n1)c1cccc(F)c1` [Compound 4242, 1-cyclohexyl-N-((7-(5-(difluoromethyl)-1,3,4-oxadiazol-2-yl)imidazo[1,2-a]pyridin-2-yl)methyl)-N-(3-fluorophenyl)piperidine-4-sulfonamide], for which the IC50 at human recombinant HDAC1 was greater than 50000 nM. Also, on human recombinant HDAC6, the “HDAC6 selectivity (fold)” value was 800 fold and the IC50 came to 62.5 nM.

For the molecule `O=S(=O)(C1CCN(C2CCOCC2)CC1)N(Cc1cn2ccc(-c3nnc(C(F)F)o3)cc2n1)c1cccc(F)c1` [Compound 4243, N-((7-(5-(difluoromethyl)-1,3,4-oxadiazol-2-yl)imidazo[1,2-a]pyridin-2-yl)methyl)-N-(3-fluorophenyl)-1-(tetrahydro-2H-pyran-4-yl)piperidine-4-sulfonamide], the half-inhibitory concentration (IC50) on human recombinant HDAC1 was greater than 50000 nM. For the same molecule, on human recombinant HDAC6, the “HDAC6 selectivity (fold)” value turned out to be 530 fold and the IC50 came out at 94.3 nM.

With `O=S(=O)(C1CCN(C2CCC(F)(F)CC2)CC1)N(Cc1cn2ccc(-c3nnc(C(F)F)o3)cc2n1)c1cccc(F)c1` [Compound 4244, 1-(4,4-difluorocyclohexyl)-N-((7-(5-(difluoromethyl)-1,3,4-oxadiazol-2-yl)imidazo[1,2-a]pyridin-2-yl)methyl)-N-(3-fluorophenyl)piperidine-4-sulfonamide], at human recombinant HDAC1, the IC50 was greater than 50000 nM. Moreover, at human recombinant HDAC6, the “HDAC6 selectivity (fold)” value came to 525 fold and the half-maximal inhibitory concentration (IC50) came to 95.3 nM.

For the molecule `CC(=O)N1CCC(S(=O)(=O)N(Cc2cn3ccc(-c4nnc(C(F)F)o4)cc3n2)c2cccc(F)c2)CC1` [Compound 4245, 1-acetyl-N-((7-(5-(difluoromethyl)-1,3,4-oxadiazol-2-yl)imidazo[1,2-a]pyridin-2-yl)methyl)-N-(3-fluorophenyl)piperidine-4-sulfonamide], the concentration for half-maximal inhibition (IC50) on human recombinant HDAC1 was greater than 50000 nM. Moreover, at human recombinant HDAC6, the “HDAC6 selectivity (fold)” value was found to be 1055 fold and the 50% inhibitory concentration (IC50) was 47.4 nM.

In the case of `CCC(=O)N1CCC(S(=O)(=O)N(Cc2cn3ccc(-c4nnc(C(F)F)o4)cc3n2)c2cccc(F)c2)CC1` [Compound 4246, N-((7-(5-(difluoromethyl)-1,3,4-oxadiazol-2-yl)imidazo[1,2-a]pyridin-2-yl)methyl)-N-(3-fluorophenyl)-1-propionylpiperidine-4-sulfonamide], the 50% inhibitory concentration (IC50) on human recombinant HDAC1 was greater than 50000 nM. In addition, at human recombinant HDAC6, the “HDAC6 selectivity (fold)” value was found to be 660 fold and the half-inhibitory concentration (IC50) was 75.8 nM.

As to `O=C(CO)N1CCC(S(=O)(=O)N(Cc2cn3ccc(-c4nnc(C(F)F)o4)cc3n2)c2cccc(F)c2)CC1` [Compound 4247, N-((7-(5-(difluoromethyl)-1,3,4-oxadiazol-2-yl)imidazo[1,2-a]pyridin-2-yl)methyl)-N-(3-fluorophenyl)-1-(2-hydroxyacetyl)piperidine-4-sulfonamide], the concentration for half-maximal inhibition (IC50) was greater than 50000 nM on human recombinant HDAC1 and 51 nM on human recombinant HDAC6. The “HDAC6 selectivity (fold)” value on human recombinant HDAC6 was 980 fold.

With `O=C(C1CCC1)N1CCC(S(=O)(=O)N(Cc2cn3ccc(-c4nnc(C(F)F)o4)cc3n2)c2cccc(F)c2)CC1` [Compound 4248, 1-(cyclobutanecarbonyl)-N-((7-(5-(difluoromethyl)-1,3,4-oxadiazol-2-yl)imidazo[1,2-a]pyridine-2-yl)methyl)-N-(3-fluorophenyl)piperidine-4-sulfonamide], the half-maximal inhibitory concentration (IC50) is greater than 50000 nM on human recombinant HDAC1 and 92.2 nM on human recombinant HDAC6. In addition, the “HDAC6 selectivity (fold)” value on human recombinant HDAC6 is 542 fold.

With `O=C(C1COC1)N1CCC(S(=O)(=O)N(Cc2cn3ccc(-c4nnc(C(F)F)o4)cc3n2)c2cccc(F)c2)CC1` [Compound 4249, N-((7-(5-(difluoromethyl)-1,3,4-oxadiazol-2-yl)imidazo[1,2-a]pyridin-2-yl)methyl)-N-(3-fluorophenyl)-1-(oxetan-3-carbonyl)piperidine-4-sulfonamide], the IC50 at human recombinant HDAC1 was greater than 50000 nM; at human recombinant HDAC6, 73.1 nM. In addition, on human recombinant HDAC6, the “HDAC6 selectivity (fold)” value was 684 fold.
